According to patent US9777037B2, “Neurosteroid compounds” (BIONATURE E. A. LTD., priority 2007, dated 2017):

Legend:
[1] = test system: Dopaminergic neural-crest derived PC12 cells; assay: Dopamine secretion from dopaminergic PC12 cells (radioimmunoassay); assay type: cell-based, rat; conditions: 10^-7 M
Experimental: Dopaminergic neural-crest derived PC12 cells were grown in 6-well plates, coated with poly-L-lysine, at a concentration of 10^6 cells/well. Cells were incubated with neurosteroids or the vehicle for several time periods; for the short-term experiments the incubation time ranged from 5 to 30 minutes and for the long-term from 3 to 48 hours. 1 mL of supernatants were transferred to tubes containing 200 μl 0.1 M HCl for measurement of dopamine, which was measured by radioimmunoassay (TriCat™ RIA, RE29395, IBL Immuno Biological Lab., Hamburg, Germany) using ^125I as a tracer. The analytical sensitivity of the method was 30 pg/ml, its intra-assay CV was 9.5%, and its inter-assay CV was 16.7%. The cross reactivity between dopamine and norepinephrine was <0.013%

MCF-7 cells = assay: MCF-7 cell growth (MTT), estrogen agonism/antagonism; assay type: cell-based, human
Text: Treatment of postmenopausal syndromes with 17β-estradiol (E2) is associated with a higher risk of developing breast and/or endometrial cancer (Arch Intern Med. 166, 1027 (2006)). E2 stimulation of the proliferation of cancer cells is driven by estrogen receptor alpha (ERα) (Mol. Endocrinol. 13, 969 (1999)). Since BNN-50, BNN-93 and BNN-124 may form two hydrogen bonds with an O—O distance of 10.9-12.5 Å and thus may fit the ERα binding cavity (Chem. Biol. 11, 397 (2004)), it was imperative to examine the estrogen agonism/antagonism properties of these neurosteroids using human adenocarcinoma cells from breast (MCF-7 cells) and uterus (Ishikawa cells) as reporters. […] Differences between control and neurosteroid-treated cells were assessed using one-way ANOVA. […]
To determine neurosteroid effects on the growth of MCF-7 human mammary (from ATCC) and Ishikawa endometrial adenocarcinoma cells (from ECACC), the cells were cultured at 37° C. in Dulbecco's Minimal Essential Medium (DMEM) supplemented with 10% Fetal Bovine Serum (FBS, from Biochrom) in 5% CO2 and subcultured using a trypsin 0.25%-EDTA 0.02% solution. Neurosteroid effects on the growth of the cells were assessed using MTT [3-(4,5-dimethylthiazol-2-yl)-2,5-diphenyltetrazolium bromide] and standard methodology (Chem. Biol. 11, 397 (2004)). […]

[2] = test system: DHEA specific membrane receptors; assay: [3H]DHEA competition binding on isolated PC12 cell membranes; design: species or system rat
Experimental: PC12 rat sympathoadrenal cells were cultured in 225 cm^2 flasks and, after washing twice with PBS, they were detached from the flasks by vigorous shaking. After a centrifugation at 1500 g, they were homogenized by sonication, in a 50 mM Tris-HCl buffer pH 7.4 at 4° C., containing freshly added protease inhibitors (1 mM PMSF and 1 μg/ml aprotinin). Unbroken cells were removed by centrifugation at 1500 g (10 min at 4° C.), and membranes were collected by centrifuging at 102,000 g for 1 hr at 4° C. Membranes were washed once with Tris-HCl, briefly acidified at 4° C. (for 3 min) with 50 mM glycine (pH 5.0), and re-suspended in the same buffer. Protein content was assayed by the method of Bradford, using reagents from Bio-Rad (Hercules, Calif.). Membranes (at a final concentration of 2 mg/ml) were incubated with 5 nM [^3H]DHEA, in the absence (to determine the total binding) or presence of unlabeled neurosteroids and their synthetic spiro analogs, at concentrations varying from 10^−12 to 10^−6 M and at a final volume of 100 μl, in Tris-HCl buffer (50 mM, pH 7.4). Following a […] incubation in a water bath, at 37° C., membranes were collected on GF/B filters, prewet in 0.5% PEI solution at 4° C. The filters were washed three times with ice-cold Tris-HCl, dried, supplemented with scintillation medium (Sigma Hellas, Athens, Greece) and counted in a β-scintillation counter (Perkin Elmer, Foster City, Calif.) with 60% efficiency for Tritium.

[3] = test system: Neural-crest derived PC12 cells; assay: APOPercentage apoptosis assay, serum-deprivation induced apoptosis of PC12 cells; assay type: cell-based, rat; conditions: Rattus norvegicus, PC-12, absence of serum 12 hours, ApoPercentage assay (FIG. 2), read-out: IC50 of anti-apoptotic, cytoprotective effect
Experimental: Neural-crest derived PC12 cells were maintained in culture at 5% CO2, at 37° C., in RPMI 1640 medium containing 2 mM L-glutamine, 15 mM HEPES, 100 units/ml penicillin, 0.1 mg/ml streptomycin, 10% horse serum, and 5% foetal calf serum. Serum free medium was supplemented with 1% bovine serum albumin (BSA). Different steroids, used at various concentrations, were initially diluted in ethanol. The final concentration of ethanol in each well, including controls was 0.01%. Conjugate DHEA-BSA was initially diluted in Phosphate Buffer Saline (PBS).
Cells were cultured in the absence of serum for 12 hours, supplemented with DHEA and various synthetic spiro neurosteroids at 10 nM. Cell apoptosis was quantitated with two different methods: The APOPercentage Apoptosis Assay (Biocolor Ltd., Belfast, N. Ireland) was used to quantify apoptosis, according to the manufacturer's instructions. Apoptosis was quantified following cell lysis by measuring the dye incorporated in apoptotic cells at 550 nm (reference filter 620 nm) using a colour filter microplate colorimeter (Dynatech MicroElisa reader, Chantilly, Va.) (see FIGS. 1 and 2). FACS Analysis: FACS analysis of apoptotic cells was performed according to our protocol (Proc Natl Acad Sci USA 101,8209 (2004)). Flow cytometry was performed with FACScan (Becton Dickinson, Heidelberg, Germany) and the results were analysed with the FACScan and Cell Quest softwares (see FIG. 3).

C[C@]12CC[C@H](O)CC1=CCC1C2CC[C@@]2(C)C1CC[C@@]21CO1 (stereo partly drawn) [BNN-50, 17β-spiro-[5-androsten-17,2′-oxiran]-3β-ol]
dopamine levels in culture media, long-term ([1]; 3 to 48 hours (FIG. 6B)): increase of dopamine levels peaking at 24 h
stimulation of dopamine secretion, short-term ([1]; 5 to 30 min, effect within 10 min (FIG. 6A)): doubling their levels
E2 agonism (at 1 uM), MCF-7 cell growth (MCF-7 cells): non-significant
E2 antagonism (at 1 uM), MCF-7 cell growth (MCF-7 cells; against E2 at 0.1 nM): non-significant
displacement of specific [3H]DHEA binding ([2]; at 1 μM, PC12 cell membranes): approximately 60%
Kd ([2]; isolated PC12 cell membranes, 5 nM [3H]DHEA (FIG. 5)): 0.016 nM
IC50 [3]: 0.088 nM
